# Patent publication US9662323B2, “Compounds having muscarinic receptor antagonist and beta2 adrenergic receptor agonist activity” (CHIESI FARMACEUTICI S.p.A., priority 2015, dated 2017)
# What was measured:
# Human β2 adrenoceptor = biological target: T1, Human β2 adrenoceptor (Homo sapiens, UniProt P07550); test: β2 Adrenoceptor Radioligand Binding Assay; details: human β2 adrenoceptor membranes, 125-I Cyanopindolol; read-out: B2 binding affinity (Ki class)
# T1 construct: purchased Perkin Elmer
# T1 sequence (P07550 whole entry): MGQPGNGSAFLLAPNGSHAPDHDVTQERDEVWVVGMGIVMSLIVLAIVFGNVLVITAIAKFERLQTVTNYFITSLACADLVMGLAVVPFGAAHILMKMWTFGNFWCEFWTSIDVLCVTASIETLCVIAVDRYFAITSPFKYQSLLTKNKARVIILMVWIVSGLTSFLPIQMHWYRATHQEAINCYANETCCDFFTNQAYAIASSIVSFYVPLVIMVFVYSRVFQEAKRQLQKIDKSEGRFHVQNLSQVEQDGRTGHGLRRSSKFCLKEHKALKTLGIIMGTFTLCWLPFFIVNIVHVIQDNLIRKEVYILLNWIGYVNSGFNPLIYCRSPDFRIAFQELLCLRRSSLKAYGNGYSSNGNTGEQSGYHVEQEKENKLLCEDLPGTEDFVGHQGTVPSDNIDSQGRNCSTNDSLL
# In short: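 Membranes were incubated 1 h at room temperature in 25 mM HEPES, 0.5% BSA, 1 mM EDTA, 0.02% ascorbic acid, pH 7.4, with 0.5% DMSO final. Bound radioligand was collected by GF/C filtration and counted by scintillation. IC50 values from competition curves were converted to Ki by Cheng–Prusoff.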
# Human M3 receptor = biological target: T2, Human M3 receptor (Homo sapiens, UniProt P20309); test: M3 Receptor Radioligand Binding Assay; details: human M3 receptor membranes, [3H]-N-methyl scopolamine; read-out: M3 binding affinity (Ki class)
# T2 construct: purchased Perkin Elmer
# T2 sequence (P20309 whole entry): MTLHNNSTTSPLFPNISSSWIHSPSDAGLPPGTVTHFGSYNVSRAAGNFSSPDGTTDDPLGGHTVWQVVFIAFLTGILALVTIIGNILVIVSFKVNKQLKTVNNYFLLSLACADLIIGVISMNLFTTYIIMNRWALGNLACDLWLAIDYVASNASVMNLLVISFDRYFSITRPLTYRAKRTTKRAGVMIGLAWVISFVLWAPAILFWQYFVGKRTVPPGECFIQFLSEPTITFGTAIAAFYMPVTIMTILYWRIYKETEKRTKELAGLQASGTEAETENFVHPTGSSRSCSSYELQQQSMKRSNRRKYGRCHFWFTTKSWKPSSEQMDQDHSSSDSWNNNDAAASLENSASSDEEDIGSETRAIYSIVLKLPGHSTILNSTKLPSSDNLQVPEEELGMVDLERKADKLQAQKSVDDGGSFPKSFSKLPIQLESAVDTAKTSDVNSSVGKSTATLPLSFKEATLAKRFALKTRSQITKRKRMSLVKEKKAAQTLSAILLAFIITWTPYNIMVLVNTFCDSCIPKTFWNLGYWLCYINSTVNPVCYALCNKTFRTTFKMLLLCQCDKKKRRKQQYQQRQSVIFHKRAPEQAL
# In short: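 Radioligand binding with 0.5% (v/v) final DMSO, incubated 2 h at room temperature with shaking. Membranes were collected on GF/C filters pre-treated with 0.5% polyethyleneimine, washed four times with assay buffer, and counted by scintillation.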
Compound,Ki (Human β2 adrenoceptor),Ki (Human M3 receptor)
"O=C(NCc1ccc(CCNC[C@H](O)c2ccc(O)c3[nH]c(=O)ccc23)cc1)c1ccc(C(=O)N2CC(C(=O)O[C@H]3CN4CCC3CC4)(c3ccccc3)C2)cc1 [Compound 16A, (R)-Quinuclidin-3-yl 1-(4-((4-(2-(((R)-2-hydroxy-2-(8-hydroxy-2-oxo-1,2-dihydroquinolin-5-yl)ethyl)amino)ethyl)benzyl)carbamoyl)benzoyl)-3-phenylazetidine-3-carboxylate]",< 1 nM,< 1 nM
"O=C(Cc1ccc(CC(=O)N2CC(C(=O)O[C@H]3CN4CCC3CC4)(c3ccccc3)C2)cc1)N(CCCNC[C@H](O)c1ccc(O)c2[nH]c(=O)ccc12)Cc1ccccc1 [Compound 14A, (R)-Quinuclidin-3-yl 1-(2-(4-(2-(benzyl(3-(((R)-2-hydroxy-2-(8-hydroxy-2-oxo-1,2-dihydroquinolin-5-yl)ethyl)amino)propyl)amino)-2-oxoethyl)phenyl)acetyl)-3-phenylazetidine-3-carboxylate]",< 1 nM,< 1 nM
"CN(CCCNC[C@H](O)c1ccc(O)c2[nH]c(=O)ccc12)C(=O)Cc1ccc(CC(=O)N2CCC(C(=O)O[C@H]3CN4CCC3CC4)(c3ccccc3)CC2)cc1 [Compound 47, (R)-Quinuclidin-3-yl 1-(2-(4-(2-((3-(((R)-2-hydroxy-2-(8-hydroxy-2-oxo-1,2-dihydroquinolin-5-yl)ethyl)amino)propyl)(methyl)amino)-2-oxoethyl)phenyl)acetyl)-4-phenylpiperidine-4-carboxylate]",1 to 10 nM,1 to 10 nM
"O=C(Cc1ccc(OCc2ccc(CNC[C@H](O)c3ccc(O)c4[nH]c(=O)ccc34)cc2)cc1)N1CC(C(=O)O[C@H]2CN3CCC2CC3)(c2ccccc2)C1 [Compound 15A, (R)-Quinuclidin-3-yl 1-(2-(4-((4-((((R)-2-hydroxy-2-(8-hydroxy-2-oxo-1,2-dihydroquinolin-5-yl)ethyl)amino)methyl)benzyl)oxy)phenyl)acetyl)-3-phenylazetidine-3-carboxylate]",< 1 nM,< 1 nM
"O=C(NCc1ccc(CNC[C@H](O)c2ccc(O)c3[nH]c(=O)ccc23)cc1)c1ccc(C(=O)N2CCC(C(=O)O[C@H]3CN4CCC3CC4)(c3ccccc3)CC2)cc1 [Compound 23, (R)-Quinuclidin-3-yl 1-(4-((4-((((R)-2-hydroxy-2-(8-hydroxy-2-oxo-1,2-dihydroquinolin-5-yl)ethyl)amino)methyl)benzyl)carbamoyl)benzoyl)-4-phenylpiperidine-4-carboxylate]",1 to 10 nM,< 1 nM
"O=C(Cc1ccc(CC(=O)N(CCCNC[C@H](O)c2ccc(O)c3[nH]c(=O)ccc23)Cc2ccccc2)cc1)N1CCC(C(=O)O[C@H]2CN3CCC2CC3)(c2ccccc2)CC1 [Compound 36, (R)-Quinuclidin-3-yl 1-(2-(4-(2-(benzyl(3-(((R)-2-hydroxy-2-(8-hydroxy-2-oxo-1,2-dihydroquinolin-5-yl)ethyl)amino)propyl)amino)-2-oxoethyl)phenyl)acetyl)-4-phenylpiperidine-4-carboxylate]",< 1 nM,< 1 nM
"COc1cc(C(=O)N2CCC(C(=O)O[C@H]3CN4CCC3CC4)(c3ccccc3)CC2)ccc1OCCCCCNC[C@H](O)c1ccc(O)c2[nH]c(=O)ccc12 [Compound 3, (R)-Quinuclidin-3-yl 1-(4-((5-(((R)-2-hydroxy-2-(8-hydroxy-2-oxo-1,2-dihydroquinolin-5-yl)ethyl)amino)pentyl)oxy)-3-methoxybenzoyl)-4-phenylpiperidine-4-carboxylate]",< 1 nM,1 to 10 nM
"O=C(c1ccc(OCc2cccc(OCCCCNC[C@H](O)c3ccc(O)c4[nH]c(=O)ccc34)c2)cc1)N1CC(C(=O)O[C@H]2CN3CCC2CC3)(c2ccccc2)C1 [Compound 7A, (R)-Quinuclidin-3-yl 1-(4-((3-(4-(((R)-2-hydroxy-2-(8-hydroxy-2-oxo-1,2-dihydroquinolin-5-yl)ethyl)amino)butoxy)benzyl)oxy)benzoyl)-3-phenylazetidine-3-carboxylate]",< 1 nM,1 to 10 nM
"O=C(NCCCCNC[C@H](O)c1ccc(O)c2[nH]c(=O)ccc12)c1ccc(C(=O)N2CCC(C(=O)O[C@H]3CN4CCC3CC4)(c3ccccc3)CC2)cc1 [Compound 19, (R)-Quinuclidin-3-yl 1-(4-((4-(((R)-2-hydroxy-2-(8-hydroxy-2-oxo-1,2-dihydroquinolin-5-yl)ethyl)amino)butyl)carbamoyl)benzoyl)-4-phenylpiperidine-4-carboxylate]",< 1 nM,1 to 10 nM
"CNC(=O)N(Cc1ccc(CNC[C@H](O)c2ccc(O)c3[nH]c(=O)ccc23)cc1)Cc1ccc(C(=O)N2CCC(C(=O)O[C@H]3CN4CCC3CC4)(c3ccccc3)CC2)cc1 [Compound 63, (R)-Quinuclidin-3-yl 1-(4-((1-(4-((((R)-2-hydroxy-2-(8-hydroxy-2-oxo-1,2-dihydroquinolin-5-yl)ethyl)amino)methyl)benzyl)-3-methylureido)methyl)benzoyl)-4-phenylpiperidine-4-carboxylate]",1 to 10 nM,< 1 nM
"O=C(Cc1ccc(CC(=O)N(CCCNC[C@H](O)c2ccc(O)c3[nH]c(=O)ccc23)Cc2cccc(Oc3ccc(Cl)c(Cl)c3)c2)cc1)N1CCC(C(=O)O[C@H]2CN3CCC2CC3)(c2ccccc2)CC1 [Compound 40, (R)-Quinuclidin-3-yl 1-(2-(4-(2-((3-(3,4-dichlorophenoxy)benzyl)(3-(((R)-2-hydroxy-2-(8-hydroxy-2-oxo-1,2-dihydroquinolin-5-yl)ethyl)amino)propyl)amino)-2-oxoethyl)phenyl)acetyl)-4-phenylpiperidine-4-carboxylate]",1 to 10 nM,< 1 nM
"O=C(NCc1ccc(C(=O)N2CC(C(=O)O[C@H]3CN4CCC3CC4)(c3ccccc3)C2)cc1)c1ccc(CNC[C@H](O)c2ccc(O)c3[nH]c(=O)ccc23)cc1 [Compound 17A, (R)-Quinuclidin-3-yl 1-(4-((4-((((R)-2-hydroxy-2-(8-hydroxy-2-oxo-1,2-dihydroquinolin-5-yl)ethyl)amino)methyl)benzamido)methyl)benzoyl)-3-phenylazetidine-3-carboxylate]",< 1 nM,< 1 nM
"O=C(Cc1ccc(OCCCCCNC[C@H](O)c2ccc(O)c3[nH]c(=O)ccc23)c(F)c1)N1CCC(C(=O)O[C@H]2CN3CCC2CC3)(c2ccccc2)CC1 [Compound 13, (R)-Quinuclidin-3-yl 1-(2-(3-fluoro-4-((5-(((R)-2-hydroxy-2-(8-hydroxy-2-oxo-1,2-dihydroquinolin-5-yl)ethyl)amino)pentyl)oxy)phenyl)acetyl)-4-phenylpiperidine-4-carboxylate]",> 10 nM,< 1 nM
"CN(CCCNC[C@H](O)c1ccc(O)c2[nH]c(=O)ccc12)C(=O)c1ccc(CCC(=O)N2CCC(C(=O)O[C@H]3CN4CCC3CC4)(c3ccccc3)CC2)cc1 [Compound 53, (R)-Quinuclidin-3-yl 1-(3-(4-((3-(((R)-2-hydroxy-2-(8-hydroxy-2-oxo-1,2-dihydroquinolin-5-yl)ethyl)amino)propyl)(methyl)carbamoyl)phenyl)propanoyl)-4-phenylpiperidine-4-carboxylate]",1 to 10 nM,1 to 10 nM
"O=C(c1ccc(OCCCCCNC[C@H](O)c2ccc(O)c3[nH]c(=O)ccc23)c(F)c1)N1CCC(C(=O)O[C@H]2CN3CCC2CC3)(c2ccccc2)CC1 [Compound 9, (R)-Quinuclidin-3-yl 1-(3-fluoro-4-((5-(((R)-2-hydroxy-2-(8-hydroxy-2-oxo-1,2-dihydroquinolin-5-yl)ethyl)amino)pentyl)oxy)benzoyl)-4-phenylpiperidine-4-carboxylate]",> 10 nM,1 to 10 nM
"O=C(c1ccc(OCCCCCCNC[C@H](O)c2ccc(O)c3[nH]c(=O)ccc23)cc1)N1CCC(C(=O)O[C@H]2CN3CCC2CC3)(c2ccc(Br)cc2)CC1 [Compound 50, (R)-Quinuclidin-3-yl 4-(4-bromophenyl)-1-(4-((6-(((R)-2-hydroxy-2-(8-hydroxy-2-oxo-1,2-dihydroquinolin-5-yl)ethyl)amino)hexyl)oxy)benzoyl)piperidine-4-carboxylate]",< 1 nM,> 10 nM
"CCN(CCCNC[C@H](O)c1ccc(O)c2[nH]c(=O)ccc12)C(=O)c1ccc(C(=O)N2CCC(C(=O)O[C@H]3CN4CCC3CC4)(c3ccccc3)CC2)s1 [Compound 29, (R)-Quinuclidin-3-yl 1-(5-(ethyl(3-(((R)-2-hydroxy-2-(8-hydroxy-2-oxo-1,2-dihydroquinolin-5-yl)ethyl)amino)propyl)carbamoyl)thiophene-2-carbonyl)-4-phenylpiperidine-4-carboxylate]",< 1 nM,1 to 10 nM
"COc1cccc(CN(CCCNC[C@H](O)c2ccc(O)c3[nH]c(=O)ccc23)C(=O)Cc2ccc(CC(=O)N3CCC(C(=O)O[C@H]4CN5CCC4CC5)(c4ccccc4)CC3)cc2)c1 [Compound 38, (R)-Quinuclidin-3-yl 1-(2-(4-(2-((3-(((R)-2-hydroxy-2-(8-hydroxy-2-oxo-1,2-dihydroquinolin-5-yl)ethyl)amino)propyl)(3-methoxybenzyl)amino)-2-oxoethyl)phenyl)acetyl)-4-phenylpiperidine-4-carboxylate]",< 1 nM,< 1 nM
"Cc1cc(CC(=O)N2CCC(C(=O)O[C@H]3CN4CCC3CC4)(c3ccccc3)CC2)ccc1OCCCCCNC[C@H](O)c1ccc(O)c2[nH]c(=O)ccc12 [Compound 12, (R)-Quinuclidin-3-yl 1-(2-(4-((5-(((R)-2-hydroxy-2-(8-hydroxy-2-oxo-1,2-dihydroquinolin-5-yl)ethyl)amino)pentyl)oxy)-3-methylphenyl)acetyl)-4-phenylpiperidine-4-carboxylate]",> 10 nM,1 to 10 nM
